Reference: paper PMC8579695, “The Stringent Response Inhibits 70S Ribosome Formation in Staphylococcus aureus by Impeding GTPase-Ribosome Interactions” (mBio, 2021)

Test system: HflX binding to 50S ribosomes
Experiment: Stopped-flow fluorescence kinetics of HflX-Atto488 association to 50S subunits
Design: species or system Staphylococcus aureus
Method: FIG 3 Stopped-flow kinetic parameters of RA-GTPase association to the ribosomal subunits. (A) Schematic representation of the experimental setup for stopped-flow analysis. Nucleotides (brown circles), 50S subunits (orange oval), and Atto488-labeled RA-GTPases (purple hexagon) are indicated. Arrows indicate the direction of syringe movement. Atto-488 was excited using a 470-nm LED, and fluorescence was detected through a 515-nm long-pass filter. (B and C) Fluorescent change upon mixing 0.2 μM RbgA-Atto488 (B) or HflX-Atto488 (C) with 0.2 μM 50S ribosomal subunits in the presence of 100 μM GTP, ppGpp, and pppGpp or in the apo state using the stopped-flow fluorescence apparatus. Fluorescently labeled protein was also mixed with buffer lacking 50S subunits as a mixing control. Fluorescence of the reaction was tracked using exponential sampling for 10 s, and each curve represents the mean average of at least five technical replicates. (D) kapp1 dependence on 50S concentration for HflX complexed with GTP (green), ppGpp (pink), and pppGpp (black). (E) Same as for panel D for the kapp2 dependence. (F and G) Sum and product analyses of apparent rates during HflX association to the 50S subunit. HflX-Atto488 (0.05 μM) was mixed with increasing titrations of 50S ribosomal subunits over the fluorescently labeled protein in the presence of 20 μM GTP or ppGpp. The resultant traces (see Fig. S4) were analyzed by nonlinear regression using two exponential terms. The sum (F) and product (G) of apparent rates (kapp1 [D] and kapp2 [E]) were plotted as a function of the total concentration of the 50S subunits and HflX protein to determine the microscopic constants k1, k-1, k2, and k-2 (Table 2) and the resulting dissociation constant (Kd) (see Materials and Methods). Error bars represent the standard deviations of the apparent rates of four or more individual traces (D and E) or the standard errors of the two-step analysis (F and G).
Next, we used a constant concentration of protein in the presence of 200-fold excess of each nucleotide and titrated it with increasing concentrations of ribosomal subunits (see Fig. S4). […]
For initial controls, 0.2 μM Atto-488-labeled proteins were rapidly mixed with 0.2 μM E. coli 50S ribosomal subunits (purified as described elsewhere) in TAKM7 buffer (25 mM Tris-HCl [pH 7.4], 70 mM ammonium acetate, 30 mM KCl, 7 mM MgCl2) using an SX20 stopped-flow apparatus (Applied Photophysics) in the presence or absence of GTP, ppGpp, and pppGpp. […] Atto-488 was excited using a 470-nm LED and fluorescence was detected through a 515-nm long-pass filter. Reactions were monitored for 10 s, with 1,000 total data points per reaction. Each condition was subject to at least five technical repeats, with curves representing the mean average fluorescence of the technical repeats. […]

Nc1nc2c(ncn2[C@@H]2O[C@H](COP(=O)(O)OP(=O)(O)O)[C@@H](OP(=O)(O)OP(=O)(O)O)[C@H]2O)c(=O)[nH]1 [ppGpp]
reduction of the second, slow-phase reaction of HflX relative to GTP-bound: 4 fold | kapp2 of HflX association to 50S (GTP: hyperbolic, plateau, ppGpp: independent of 50S concentration): 1.0 s⁻¹
